Experiment: gradient 5% acetonitrile 3 min, to 50% in 2 min, to 85% in 15 min, held 3 min, 100 µL/min
Settings: column: Zorbax Extend-C18 2.1 x 50 mm; eluents: water / acetonitrile, 0.1% formic acid
Summary of the method: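 Standards, all pure, were combined into mixtures of ~100 molecules and run at 100 μL/min on a Zorbax Extend-C18 column (2.1 × 50 mm, 1.8 μm) with water and acetonitrile, each containing 0.1% formic acid. A coupled quadrupole time-of-flight mass spectrometer operated in positive and negative ionization mode. Retention time values come from computationally picked adduct peaks, each inspected manually.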

| RP-LC retention time | SMILES |
| --- | --- |
| 646 s | CC(C)CNC(=O)c1cn(-c2cc(-c3nc(C4CC4)no3)ccn2)cn1 |
| 929 s | CCOCCCNC(=O)C(C)n1c(=O)c(C(F)(F)F)nc2ccccc21 (centres undefined) |
| 759 s | O=C(CC1CCN(C(=O)NCCc2ccccc2)CC1)N1CCCCC1 |
| 762 s | CN1C(=O)COc2ccc(-c3csc(NC(=O)C4CCCO4)n3)cc21 (centres undefined) |
| 686 s | O=C(NCC(F)(F)F)C1CCN(C(=O)c2c(F)cccc2Cl)CC1 |
| 702 s | CCn1ccc2sc(C)c(C(=O)O)c2c1=O |
| 860 s | Cn1ncc2c3ccccc3n(CC(=O)NCCc3c[nH]c4ccc(Cl)cc34)c2c1=O |
| 1000 s | Cc1ccc(Cn2c(N3CCCC(C(=O)NCCc4cccs4)C3)nc3ccsc3c2=O)cc1 (centres undefined) |
| 1310 s | Cc1cccc(-c2nc(Cn3nnc(-c4nc(-c5ccccc5Br)no4)c3C)c(C)o2)c1 |
| 809 s | CCOc1ccc(NC(=O)Cn2nc(N3CCCC3)c3ccccc3c2=O)cc1 |
| 850 s | O=C(Nc1ccc(N2CCN(C3CCCCC3)C2=O)nc1)c1ccccc1F |
| 706 s | Cc1cccc(NC(=O)Cn2cnc3c(c2=O)CCCC3)c1 |
| 640 s | CCNC(=O)C1CCCN(c2nc3ncn(CC(=O)NCc4ccc5c(c4)OCO5)c(=O)c3s2)C1 (centres undefined) |
| 956 s | Cc1ccc(-c2noc(-c3nn(-c4cccc(F)c4)ccc3=O)n2)cc1 |
| 532 s | COc1ccc(C(=O)N2CCCn3cc(-c4ccccc4)nc32)cn1 |
| 1150 s | CCCC(=O)N1CCc2c([nH]c3ccccc23)C1c1cccc(OCC)c1 (centres undefined) |
| 1250 s | CCOC(=O)Cc1c(C)nc2c(-c3cccc(Br)c3)cnn2c1C |
| 828 s | Cc1cc(C(=O)N2CC3CN(S(=O)(=O)c4cccc(F)c4)CC(C2)O3)c(C)o1 |
| 788 s | COc1ccc(CNC(=O)C2CCN(S(=O)(=O)c3ccc4c(c3)NC(=O)C(C)O4)CC2)cc1 (centres undefined) |
| 978 s | Cc1ccc(-c2cc3c4nnc(SCC(=O)NC5CCCCC5)n4ccn3n2)cc1C |
| 595 s | Cn1c(=O)c2ccn(CC(=O)N3CCN(c4ncccn4)CC3)c2n(C)c1=O |
| 568 s | CNC(=O)C1CCN(c2nc3ccc(-c4ccncc4)nc3s2)CC1 |
| 1030 s | CCN1C(=O)c2cc(S(=O)(=O)NCc3cccc(C)c3)ccc2Oc2cccnc21 |

| RP-LC retention time | SMILES |
| --- | --- |
| 739 s | CC(=O)Nc1nc(-c2ccc3c(c2)N(C)C(=O)C(C)O3)cs1 (centres undefined) |
| 762 s | Cc1ccc(N2CCC(NC(=O)C3CCC3)C2=O)cc1C (centres undefined) |
| 1230 s | Cc1cc(C)c(NS(=O)(=O)c2cc(-c3cc(C(F)(F)F)on3)sc2C)c(C)c1 |
| 700 s | O=C(Cc1cn(Cc2ccc(Cl)cc2)c2ccccc12)NCc1ccccn1 |
| 642 s | O=C(CNC(=O)c1cc(F)cc(F)c1)Nc1nc2ccccc2[nH]1 |
| 877 s | Cc1noc(C)c1S(=O)(=O)N1CCC(C(=O)NCCc2csc(-c3ccccc3)n2)CC1 |
| 1210 s | O=C(c1ccc(Cl)c(Cl)c1)N1CCN(c2nc(-c3ccccc3)cs2)CC1 |
| 627 s | Cc1cc2nn(CC(=O)NCc3ccccc3)c(=O)n2c(-c2cccc(F)c2)n1 |
| 887 s | CCOc1ccc(N2C=C(C(=O)OC)S(=O)(=O)c3ccccc32)cc1 |
| 912 s | CCOC(=O)c1[nH]c(C(=O)O)c(OC(=O)CC)c1C |
| 796 s | O=C(NC1CCCCC1)c1ccc2c(c1)nc1n2CCN(C2CCCCC2)C1=O |
| 941 s | CC(NC(=O)Nc1ccc(Br)cc1)C(=O)N1CCc2ccccc21 (centres undefined) |
| 684 s | COc1ccc(Nc2c(-c3ccc(N(C)C)cc3)nc3ncccn23)cc1 |
| 595 s | COc1ccc(-n2c(CN3CCN(C(=O)NC(C)C)CC3)nc3cccnc32)cc1 |
| 709 s | COc1cc(NC(=O)CN2CCN(Cc3ccc(C)cc3)C(=O)C2=O)cc(OC)c1OC |
| 1190 s | CSc1ccc(CNC(=O)C2CCCN(c3nc4c(s3)c(C)nn4-c3ccc(F)cc3)C2)cc1 (centres undefined) |
| 640 s | O=C(c1ccsc1)N1CCCn2cc(-c3ccccc3)nc21 |
| 735 s | Cc1ccc(CNC(=O)Cn2ccc3c(SCc4ccc(F)cc4)nccc32)o1 |
| 1080 s | Cc1nc2cc(-c3noc(Cc4cccc(C(F)(F)F)c4)n3)ccc2o1 |
| 897 s | COc1ccc(N2CCN(c3cc(SCC(=O)NCc4ccc(SC)cc4)ncn3)CC2)cc1 |
| 775 s | COc1ccc(CCC(=O)N2CCCC2c2cc(C)on2)cc1 (centres undefined) |
| 944 s | COc1ccccc1-c1noc(CN2C(=O)C(C)Oc3ccccc32)n1 (centres undefined) |
| 936 s | COc1ccc(OC)c(NC(=O)N(C)CCc2noc(COc3ccccc3)n2)c1 |

| RP-LC retention time | SMILES |
| --- | --- |
| 607 s | O=C(NCCc1ccccc1)N1CCN(c2cc(-c3ccncc3)[nH]n2)CC1 |
| 838 s | COC(=O)c1[nH]c2c(c1C)C(=O)CC(c1cccc(OC)c1)C2 (centres undefined) |
| 1070 s | Cc1nc(-c2ccccc2)nc2c1CC(=O)N2Cc1cccs1 |
| 856 s | CSc1cccc(NC(=O)Nc2ccccc2C(N)=O)c1 |
| 942 s | CCC(C)N(CC(=O)N1CCc2sccc2C1COc1ccccc1C)C(=O)COC (centres undefined) |
| 689 s | Cc1ccc(-c2nc(-c3ccc4c(c3)ncn4CCN3CCOCC3)no2)cc1F |
| 1110 s | c1ccc(-c2noc(-c3ccc(NCc4ccc5c(c4)OCO5)nc3)n2)cc1 |
| 741 s | Cc1ccc(-n2cc3c(N4CCCC(C(=O)NC(C)c5ccc(F)cc5)C4)ncnc3n2)cc1 (centres undefined) |
| 743 s | CC(C)C(=O)Nc1ccc2c(c1)N(C(=O)c1ccco1)CCC2 |
| 847 s | CCOc1ccc(-n2ccn3cc(-c4cccc(OC)c4)nc3c2=O)cc1 |
| 1160 s | O=C(NC1CCCCC1)c1csc(N2CCN(c3ccccc3)CC2)n1 |
| 1020 s | COCCn1c(SCc2nc(-c3ccc(OC)cc3)no2)nc2cc3c(cc2c1=O)OCO3 |
| 617 s | Cc1ccc2cc(CCC(=O)NCc3nc4ccccc4n3C)c(=O)[nH]c2c1 |
| 851 s | O=C(Nc1ccccc1Cl)C1CCCN(c2ncnc3c2nc2n3CCCCC2)C1 (centres undefined) |
| 631 s | C=CCn1nc2c(C)c(C)nc(-c3cccnc3)n2c1=O |
| 1130 s | CCn1c(C(=O)NCc2ccc(OC)cc2)cc2sc(Cl)cc21 |
| 909 s | O=C(NC1CCCCC1)c1ccc(Nc2c(-c3ccc(Cl)cc3)nc3cnccn23)cc1 |
| 633 s | NC(=O)C1CCN(C(=O)c2nnn(-c3ccc(Cl)cc3)c2-c2cccnc2)CC1 |
| 640 s | CN(C)c1ccc(CNC(=O)Cc2c[nH]c3ncccc23)cc1 |
| 714 s | CCN(CCCNC(=O)c1nnc(-c2ccc(S(=O)(=O)N3CCCC3)cc2)o1)c1ccccc1 |
| 536 s | Cc1noc([C@@H]2CN(C(=O)c3cn[nH]c3)C[C@H]2C(N)=O)n1 |
| 1210 s | Cc1cc(C)cc(Oc2nccn3c(=O)n(CC(=O)NCc4ccco4)nc23)c1 |
| 702 s | CCn1c(=O)sc2cc(S(=O)(=O)N3CCC(C(=O)Nc4cc(C)ccn4)CC3)ccc21 |

| RP-LC retention time | SMILES |
| --- | --- |
| 641 s | COc1ccc(Br)cc1-c1nnc2n(C)c3c(=O)n(C)c(=O)n(C)c3n12 |
| 780 s | CCn1c(-c2cccc(C(=O)NC3CCCCC3)c2)nc2cccnc21 |
| 807 s | COc1cccc(OCC2c3ccsc3CCN2C(=O)CN(C(C)=O)C2CC2)c1 (centres undefined) |
| 635 s | Cn1cc(S(=O)(=O)N2CCC(C(=O)Nc3ccccn3)CC2)cc1C(=O)N1CCCC1 |
| 748 s | COc1ccc(C2C(C(=O)N3CCCCCC3)c3cc(OC)c(OC)cc3C(=O)N2C)cc1OC (centres undefined) |
| 793 s | Cc1[nH]c(C(=O)N2CCN(c3ccccc3F)CC2)c(C)c1S(=O)(=O)N1CCOCC1 |
| 735 s | CCOC(=O)c1cccc(NC(=O)C2CCN(S(=O)(=O)c3cn(C)cn3)CC2)c1 |
| 948 s | CCOC(=O)c1noc2ncnc(N3CCc4ccccc43)c12 |
| 822 s | COC(=O)c1ccc(-c2nc3cnccn3c2Nc2cccc(C(=O)OC)c2)cc1 |
| 663 s | O=C(Cc1ccc(Cl)cc1)N1CCN(c2nnc3ccccn23)CC1 |
| 1110 s | CC1CCN(S(=O)(=O)c2ccc(-c3nnc(C(=O)NCc4ccccc4Cl)o3)cc2)CC1 |
| 1010 s | Cc1ccc(-c2nnc(COc3cccc(NC(=O)c4n[nH]c5c4CCCC5)c3)o2)cc1 |
| 937 s | COc1ccc(-c2nnc(-c3ccc(C)c(S(=O)(=O)N4CCCC4)c3)o2)cc1OC |
| 599 s | Nc1nc(N)c2nc(-c3cccc(O)c3)cnc2n1 |
| 869 s | Cc1ccccc1CNC(=O)C1(C)CCCN(C(=O)Nc2ccc(Br)cc2F)C1 (centres undefined) |
| 668 s | O=C(NCc1cccnc1)C1c2ccccc2C(=O)N1CCc1ccc(Cl)cc1 (centres undefined) |
| 767 s | Cc1ccc(OCC(=O)N2CCCCC2c2nncn2CC2CC2)cc1 (centres undefined) |
| 757 s | CCc1noc([C@@H]2CC(F)(F)CN2C(=O)c2ccoc2)n1 |
| 771 s | Cc1cc(SCC(=O)N2CCCc3ccccc32)ncn1 |
| 1040 s | CCCN1C(=O)COc2ccc(-c3csc(NC(=O)c4cc(OC)c(OC)c(OC)c4)n3)cc21 |
